Here are results for three substances from PMC6397244, “Peptide Assembly on the Membrane Determines the HIV-1 Inhibitory Activity of Dual-Targeting Fusion Inhibitor Peptides” (Scientific Reports, 2019).

The subject of data set [1] is CM235 (HIV pseudotype, Env pCM235/GS). The settings on record: CM235 (R5, subtype A/E); TZM-bl, peptide 1 h before and during infection, luciferase read-out 48 h after infection; duplicates. The text has this:
(§1) The anti-HIV activities of DT-peptides and E1 were comparatively tested against a set of viral pseudotypes carrying HIV envelopes from HIV subtype A, B, C and A/E (Table 1) in the TZM-bl reporter cell line.
(§2) The preparation of the HIV-1 Env pseudotyped virus stocks in a GCLP- (Good Clinical Laboratory Practice) compliant manner occurred as described previously. This includes the pseudoviruses listed in Table 2 with the Env sequences HXB2, AC10.0.29, Q461.e2, Q23.17, CAP210.2.00.E8 and CM235.c11 as well as the Env deficient backbone plasmid pSG3ΔEnv. Within this study the titration assay to determine the virus dilution at a relative luminescence unit (RLU) of 150,000 was performed according to the method described before[34]–[36] and the luminescence was measured using the Infinite F200 microplate reader.
(§3) Peptides were tested for their antiviral activities against a panel of HIV pseudotypes carrying different HIV envelope proteins (Table 2) in the TZM-bl indicator cell line. Briefly, 10-fold serial dilutions of the compounds (0.001–10 µM) were incubated in duplicates with the cells in 96-well plates. 1 h after incubation, cell culture medium was replaced and cells were infected with the different pseudotypes together with fresh compounds. […] 48 h after infection, cells were washed and luciferase was quantified using the Britelite Plus Luciferase Assay System (PerkinElmer). Luciferase values were normalized to DMSO control. Cell viability was estimated in parallel in non-infected TZM-bl cells with the Cell Titer Glo ATPase kit (Promega). CC50 and EC50 values ± SEM were calculated with GraphPad Prism, using the built-in function log (inhibitor) vs. normalized response.

Data set [2] concerns Q23 (HIV pseudotype, Env pQ23.17). The conditions noted are these: Q23 (R5, subtype A); TZM-bl, peptide 1 h before and during infection, luciferase read-out 48 h after infection; duplicates.
Description: as §1, §2, §3

Data set [3] deals with Q461 (HIV pseudotype, Env pQ461.e2). The conditions noted are these: Q461 (R5, subtype A); TZM-bl, peptide 1 h before and during infection, luciferase read-out 48 h after infection; duplicates.
Description: as §1, §2, §3

The test system of data set [4] is CAP210 (HIV pseudotype, Env pCAP210.2). The settings on record: CAP210 (R5, subtype C); TZM-bl, peptide 1 h before and during infection, luciferase read-out 48 h after infection; duplicates.
Description: as §1, §2, §3

In data set [5] the test system is HXB2 (HIV pseudotype, Env pHXB2). The conditions noted are these: HXB2 (X4, subtype B); TZM-bl, peptide 1 h before and during infection, luciferase read-out 48 h after infection; duplicates.
Description: as §1, §2, §3

Data set [6] concerns AC10 (HIV pseudotype, Env pAC10.0). The settings on record: AC10 (R5, subtype B); TZM-bl, peptide 1 h before and during infection, luciferase read-out 48 h after infection; duplicates.
Description: as §1, §2, §3

Data set [7] can be described thus: 1D 1H NMR in DPC micelles. The settings on record: NMR sample. Type of data set: physicochemical. The method, then: Nuclear magnetic resonance (NMR) spectra were recorded at 300 K on a Bruker Avance III console (Bruker Biospin, Germany) combined with a […] Oxford Instruments magnet (^1H 500 MHz), equipped with a 5 mm inverse cryogenically cooled triple-resonance TCI (^1H, ^13C, ^15N, and ^2H lock) cryoprobe with a z-axis magnetic field-gradient capability. For proton spectra acquisition, peptide samples were prepared by dissolving first lyophilized peptide in a small amount of DMSO-d6 and next, dissolution in detergent solution containing perdeuterated DPC-d38 (final molar ratio ~ 1:100, peptide/DPC 0.5:50 mM). […] The diffusion coefficient, D, was determined by fitting diffusion weighted intensities of selected peaks or integrals over a chosen range to the following equation1 I=I0exp{−γ^2g^2δ^2(Δ−δ/3)D}, where γ is the gyromagnetic ratio of proton and g, δ and Δ are the amplitude, duration and separation of the single pair of gradient pulses, respectively. […] The reason for DPC diffusion coefficients being higher than peptides values is likely due to a surplus of free monomeric DPC molecules (below cmc), so the diffusion coefficient measured for DPC has a relevant contribution of […], while the observed peptide resonances (and their diffusion coefficient) mainly correspond to DPC-bound peptide.

Data set [8] can be described thus: Trp quenching by brominated phospholipids. Type of data set: physicochemical. The conditions noted are these: 2 µM peptide, 200 µM Br-PC vs DOPC vesicles, 5 min, 25 °C, excitation 290 nm; three repeated assays. The method, then:
Quenching of Trp by brominated phospholipid was performed using liposomes composed of 1,2-di-(9-10-dibromo) stearoyl-sn-glycero-3-phosphocoline (Br-PC) (Avanti Polar Lipids). As previously reported, this lipid has similar properties as unsaturated phosphatidylcholine chains due to the bulkiness of bromine residues. For this reason, liposomes of 1,2-dioleoyl-sn-glycero-3-phosphocholine (DOPC) were used for comparing the Trp fluorescence of peptides with brominated liposomes. Liposomes were prepared following the same procedure as described above. Comparatively, a concentration of 2 µM of peptides was added to 200 µM of lipid vesicles either BrPC or DOPC. After 5 min of incubation at 25 °C, fluorescence spectra were recorded with an excitation wavelength of 290 nm and emission from 300 to 450 nm. The fractional quenching was calculated as reported in ref. [33] by (F0 − F)/F0, where F0 is the fluorescence intensity at 340 nm for peptides added to DOPC liposomes and F for peptides added to Br-PC liposomes.

Data set [9] in a line: membrane affinity / partition, intrinsic Trp fluorescence on titration with POPC liposomes. The class given is physicochemical. The conditions noted are these: 5 µM peptide, POPC LUVs 0.05–0.6 mM, 20 °C; for apparent mole fraction partition coefficient KX: intrinsic Trp fluorescence (ex 280 nm), PBS 0.01 M pH 7.4 (method) / HEPES, triplicate. Here is the method: Unilamellar vesicles (LUV) composed of the negatively charged phospholipid 1-palmitoyl-2-oleoyl-sn-glycero-3-phospho-(1′-rac-glycerol) (POPG) or zwitteronic phospholipid palmitoyl-2-oleoyl-sn-glycero-3-phosphocholine (POPC) (both from Avanti Polar-Lipids) were prepared as model membranes. Lipids (10 mM) were dissolved in chloroform/methanol (2/1, v/v) solution. The solvent was evaporated under reduced pressure. A buffer solution of PBS 0.01 M pH 7.4 was added to the previously obtained lipid film to prompt the spontaneous formation of multilamellar vesicles that were subjected to a process of 10 freeze and thaw cycles. The liposomes were then subjected to an extrusion process through 100-nm pore-sized polycarbonate filters in a high-pressure extruder.
To carry out membrane partition studies with DT-peptides, emission fluorescence spectra were recorded for DT-peptides in PBS (0.01 M, pH 7.4) at 20 °C using an excitation wavelength of 280 nm. Changes in the tryptophan (Trp) fluorescence spectra were monitored after incubation of 5 µM of each peptide with increasing concentrations of liposomes. The suspensions were continuously stirred and were left to equilibrate for 10 min before recording the spectra. Fluorescence intensities were corrected by subtraction of the vesicle blank. A lipid titration of N-acetyltryptophanamide (NATA) was carried out at the same time. As described in ref. [31], the apparent mole fraction partition coefficients were determined by fitting the binding curves to the equation: F=fboundFmax+(1−fbound)F0 where F is the relative fluorescence intensity, F0 is the fluorescence intensity in the absence of lipid. fbound=KxL/(W+KxL) where Kx is the mole fraction partition coefficient, L is the lipid concentration, and W is the molar concentration of water (55.3 M at 25 °C).

Another data set relates to HIV-1 FP. The settings on record: donor:acceptor 1:1 ratio; cited from earlier work. The text has this: The energy transfer efficiency between FP and E1 peptide at a donor:acceptor 1:1 ratio, was around 30% while the energy transfer efficiency between FP and DT-P2 was only 5%.

Ends that are not written are not given here.

What is called EC50 is the concentration that produces a half-maximal response. Take “LCDCPNGPWVWVPAFCQAVGGGGSWILEYLWKVPFDFWRGVI-NH2 (cysteines drawn unpaired) [DT-P1]”: the EC50 in data set [1] worked out at 18.9 µM; in [2] it was 21.6 µM; in [3], 24.5 µM; in [4], 12.9 µM; in data set [5], 7.63 µM; in data set [6], 20.2 µM. The “effect of higher DMSO-d6 (from 3 to 13%) to increase solubility” value in data set [7] was “no improvement was observed”.

Consider “WILEYLWKVPFDFWRGVI-NH2 (C-terminus assumed) [E1]”, for which, in [8], the “Trp quenching by brominated lipid vesicles / accessibility for the lipids (in words)” value is given as “highly quenched demonstrating greater peptide accessibility to the hydrophobic inner part of the lipid vesicles”. In addition, the “Trp fluorescence upon titration with POPC liposomes / membrane partition (in words)” value in data set [9] (excitation 280 nm) is “partitioned stronger into lipid vesicles”. The “apparent mole fraction partition coefficient KX” value in data set [9] is listed as 8.2 × 10^5. Moreover, the “energy transfer efficiency between FP and peptide” value with HIV-1 FP is given as “around 30%”.

In the case of “WILEYLWKVPFDFWRGVIGGGSLCDCPNGPWVWVPAFCQAVG-NH2 (cysteines drawn unpaired) [DT-P2]”, the EC50 in data set [1] came to 17.9 µM; in [2], 15.9 µM; in [3], 24.5 µM; in data set [4], 9.4 µM; in data set [5] it was 10.8 µM; in [6] it was 14 µM. Further, the “apparent mole fraction partition coefficient KX” value in [9] was 2.4 × 10^5.
